Experimental data: the supplement of paper PMC10307832

Legend:
Assay in all cases: relative viability (nuclei count vs DMSO), 5 days (fraction); higher = more cells survive
Avagacestat + Foretinib = compound: NC(=O)[C@@H](CCC(F)(F)F)N(Cc1ccc(-c2ncon2)cc1F)S(=O)(=O)c1ccc(Cl)cc1 [Avagacestat] + COc1cc2c(Oc3ccc(NC(=O)C4(C(=O)Nc5ccc(F)cc5)CC4)cc3F)ccnc2cc1OCCCN1CCOCC1 [Foretinib] (partner 0.25 µM)
Summary of the method: (§1)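 Relative viability equals treated-well nuclei counts divided by vehicle-well nuclei counts. Counts came from 4× images of lung cancer cell lines grown in 1536-well plates for 5 days after pin-tool dosing on the day after seeding. Dosing used one drug alone or a fixed anchor-drug dose plus five library-drug doses (not always all listed) in √10 steps, and values are medians of duplicate plates.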

Avagacestat + Luminespib = compound: NC(=O)[C@@H](CCC(F)(F)F)N(Cc1ccc(-c2ncon2)cc1F)S(=O)(=O)c1ccc(Cl)cc1 [Avagacestat] + CCNC(=O)c1noc(-c2cc(C(C)C)c(O)cc2O)c1-c1ccc(CN2CCOCC2)cc1 [Luminespib] (partner 0.01 µM)
Summary of the method: as §1

Avagacestat + Tozasertib = compound: NC(=O)[C@@H](CCC(F)(F)F)N(Cc1ccc(-c2ncon2)cc1F)S(=O)(=O)c1ccc(Cl)cc1 [Avagacestat] + Cc1cc(Nc2cc(N3CCN(C)CC3)nc(Sc3ccc(NC(=O)C4CC4)cc3)n2)n[nH]1 [Tozasertib] (partner 0.1 µM)
Summary of the method: as §1

Avagacestat + AZD7762 = compound: NC(=O)[C@@H](CCC(F)(F)F)N(Cc1ccc(-c2ncon2)cc1F)S(=O)(=O)c1ccc(Cl)cc1 [Avagacestat] + NC(=O)Nc1cc(-c2cccc(F)c2)sc1C(=O)N[C@H]1CCCNC1 [AZD7762] (partner 0.2 µM)
Summary of the method: as §1

Cell Line | relative viability (Avagacestat + Foretinib; first compound 0.08 µM) | relative viability (Avagacestat + Foretinib; first compound 0.253 µM) | relative viability (Avagacestat + Foretinib; first compound 0.8 µM) | relative viability (Avagacestat + Foretinib; first compound 2.53 µM) | relative viability (Avagacestat + Foretinib; first compound 8 µM) | relative viability (Avagacestat + Luminespib; first compound 0.08 µM) | relative viability (Avagacestat + Luminespib; first compound 0.253 µM) | relative viability (Avagacestat + Luminespib; first compound 0.8 µM) | relative viability (Avagacestat + Luminespib; first compound 2.53 µM) | relative viability (Avagacestat + Luminespib; first compound 8 µM) | relative viability (Avagacestat + Tozasertib; first compound 0.08 µM) | relative viability (Avagacestat + Tozasertib; first compound 0.253 µM) | relative viability (Avagacestat + Tozasertib; first compound 0.8 µM) | relative viability (Avagacestat + Tozasertib; first compound 2.53 µM) | relative viability (Avagacestat + Tozasertib; first compound 8 µM) | relative viability (Avagacestat + AZD7762; first compound 0.08 µM) | relative viability (Avagacestat + AZD7762; first compound 0.253 µM) | relative viability (Avagacestat + AZD7762; first compound 0.8 µM) | relative viability (Avagacestat + AZD7762; first compound 2.53 µM) | relative viability (Avagacestat + AZD7762; first compound 8 µM)
A549 | 1.01 | 1.15 | 1.01 | 1.01 | 0.878 |  |  |  |  |  |  |  |  |  |  |  |  |  |  | 
COR-L23 | 1.12 | 1.28 | 1.1 | 0.901 | 0.952 | 1.08 | 0.803 | 1.08 | 0.642 | 0.512 | 0.363 | 0.152 | 0.171 | 0.173 | 0.149 |  |  |  |  | 
COR-L 105 | 1.17 | 1.25 | 1.36 | 0.927 | 0.698 | 1.02 | 1.01 | 0.798 | 0.542 | 0.754 | 0.379 | 0.458 | 0.41 | 0.334 | 0.359 |  |  |  |  | 
Calu-6 | 1.12 | 0.949 | 0.979 | 0.905 | 0.845 |  |  |  |  |  |  |  |  |  |  |  |  |  |  | 
EBC-1 | 0.114 | 0.113 | 0.123 | 0.11 | 0.107 |  |  |  |  |  |  |  |  |  |  |  |  |  |  | 
HCC-44 |  |  |  |  |  | 1.21 | 1.36 | 1.14 | 0.885 | 1.25 | 1.03 | 1.27 | 0.976 | 0.146 | 0.755 | 0.923 | 1.04 | 1.03 | 1.01 | 1.18
HCC-78 | 0.588 | 0.523 | 0.542 | 0.492 | 0.54 |  |  |  |  |  | 0.404 | 0.473 | 0.208 | 0.396 | 0.377 | 0.61 | 0.615 | 0.665 | 0.461 | 0.529
HCC-366 | 1.01 | 1.05 | 0.944 | 1.01 | 1.04 |  |  |  |  |  | 0.0969 | 0.172 | 0.0909 | 0.0683 | 0.0694 | 0.268 | 0.272 | 0.328 | 0.235 | 0.176
IA-LM | 1.76 | 1.68 | 1.71 | 1.37 | 1.4 |  |  |  |  |  |  |  |  |  |  |  |  |  |  | 
NCI-H520 | 0.755 | 0.753 | 0.731 | 0.657 | 0.629 | 0.223 | 0.241 | 0.239 | 0.218 | 0.23 | 0.417 | 0.48 | 0.42 | 0.3 | 0.36 |  |  |  |  | 
NCI-H661 | 1.04 | 1.17 | 1.07 | 0.974 | 1.08 | 0.983 | 1.08 | 0.946 | 0.913 | 1.01 | 0.356 | 0.381 | 0.361 | 0.363 | 0.37 |  |  |  |  | 
NCI-H1299 | 1.07 | 1.12 | 1.15 | 1.09 | 1.12 |  |  |  |  |  |  |  |  |  |  |  |  |  |  | 
NCI-H1563 | 1.1 | 0.999 | 0.879 | 0.803 | 0.842 | 0.552 | 0.558 | 0.575 | 0.503 | 0.543 |  |  |  |  |  |  |  |  |  | 
NCI-H1648 |  |  |  |  |  |  |  |  |  |  | 0.374 | 0.464 | 0.371 | 0.296 | 0.298 | 0.603 | 0.564 | 0.548 | 0.46 | 0.48
NCI-H1650 | 1.47 | 1.11 | 1.06 | 1.04 | 1.09 | 0.222 | 0.203 | 0.212 | 0.202 | 0.193 | 0.47 | 0.378 | 0.468 | 0.393 | 0.333 |  |  |  |  | 
NCI-H1703 | 0.315 | 0.318 | 0.384 | 0.338 | 0.308 |  |  |  |  |  |  |  |  |  |  | 0.123 | 0.143 | 0.115 | 0.112 | 0.124
NCI-H1792 |  |  |  |  |  | 0.649 | 0.478 | 0.522 | 0.414 | 0.33 |  |  |  |  |  | 0.726 | 0.942 | 0.706 | 0.65 | 0.345
NCI-H2009 | 1.31 | 1.39 | 1.24 | 1.24 | 1.21 | 1.13 | 1.03 | 1.2 | 1.04 | 0.901 | 0.879 | 0.836 | 0.812 | 0.61 | 0.532 |  |  |  |  | 
NCI-H2023 | 0.857 | 0.892 | 1 | 0.847 | 0.65 | 1.06 | 0.862 | 0.952 | 0.514 | 0.762 | 0.513 | 0.479 | 0.396 | 0.289 | 0.254 |  |  |  |  | 
NCI-H2228 | 1.07 | 1.1 | 0.941 | 0.773 | 0.793 | 0.221 | 0.117 | 0.179 | 0.132 | 0.108 | 0.206 | 0.255 | 0.206 | 0.224 | 0.242 |  |  |  |  | 
SK-LU-1 | 0.993 | 0.879 | 0.852 | 0.575 | 0.66 | 0.223 | 0.189 | 0.218 | 0.201 | 0.225 | 0.317 | 0.318 | 0.329 | 0.269 | 0.31 |  |  |  |  | 
SK-MES-1 | 0.92 | 0.808 | 1.03 | 0.666 | 0.619 | 0.863 | 0.865 | 0.724 | 0.616 | 0.788 | 1.13 | 1.23 | 1.07 | 0.874 | 0.783 |  |  |  |  | 
SW 1573 | 0.917 | 0.866 | 0.88 | 0.867 | 1.02 | 0.341 | 0.257 | 0.218 | 0.196 | 0.214 | 0.169 | 0.195 | 0.173 | 0.217 | 0.176 |  |  |  |  | 
UMC-11 | 1.19 | 1.15 | 1.26 | 1.13 | 1.06 | 1.18 | 1.35 | 1.1 | 1.16 | 1.14 | 0.206 | 0.225 | 0.201 | 0.195 | 0.202 |  |  |  |  | 
